Source: ChEMBL document CHEMBL5260810, “Inhibition of bromodomain-containing protein 9 for the prevention of epigenetically-defined drug resistance” (Bioorg Med Chem Lett, 2017)
pIC50, pKd: −log10 of the molar value.

Assays:
[1] = tested on: AMO1; test: Cytotoxicity against human AMO1 cells measured after 8 days; type: functional, cell-based; settings: AMO1, 192 h
[2] = tested on: EB-3; test: Cytotoxicity against human EB-3 cells measured after 8 days; type: functional, cell-based; settings: EB-3, 192 h
[3] = tested on: GA-10; test: Cytotoxicity against human GA-10 cells measured after 8 days; type: functional, cell-based; settings: GA-10, 192 h
[4] = Cytotoxicity against human KMS-28PE cells measured after 8 days; type: functional, cell-based; settings: 192 h
[5] = tested on: NCI-H23; test: Cytotoxicity against human NCI-H23 cells measured after 8 days; type: functional, cell-based; settings: NCI-H23, 192 h
[6] = Cytotoxicity against human NCI-H2731 cells measured after 8 days; type: functional, cell-based; settings: NCI-H2731, 192 h
[7] = tested on: NCI-H647; test: Cytotoxicity against human NCI-H647 cells measured after 8 days; type: functional, cell-based; settings: NCI-H647, 192 h
[8] = Cytotoxicity against human Ci-1 cells measured after 8 days; type: functional, cell-based; settings: Ci-1, 192 h
[9] = tested on: JeKo-1; test: Cytotoxicity against human JeKo-1 cells measured after 8 days; type: functional, cell-based; settings: JeKo-1, 192 h
[10] = tested on: MC116; test: Cytotoxicity against human MC116 cells measured after 8 days; type: functional, cell-based; settings: MC116, 192 h
[11] = tested on: SR; test: Cytotoxicity against human SR cells measured after 8 days; type: functional, cell-based; settings: 192 h
[12] = tested on: SUD4; test: Cytotoxicity against human SU-DHL-4 cells measured after 8 days; type: functional, cell-based; settings: SU-DHL-4, 192 h
[13] = tested on: U-698-M; test: Cytotoxicity against human U-698-M cells measured after 8 days; type: functional, cell-based; settings: 192 h
[14] = tested on: CAMA-1; test: Cytotoxicity against human CAMA-1 cells measured after 8 days; type: functional, cell-based; settings: CAMA-1, 192 h
[15] = tested on: HCC38; test: Cytotoxicity against human HCC38 cells measured after 8 days; type: functional, cell-based; settings: HCC38, 192 h
[16] = tested on: HEY; test: Cytotoxicity against human HEY cells measured after 8 days; type: functional, cell-based; settings: 192 h
[17] = tested on: CX-1; test: Cytotoxicity against human CX-1 cells measured after 8 days; type: functional, cell-based; settings: CX-1, 192 h
[18] = tested on: IGR-37 cell line; test: Cytotoxicity against human IGR-37 cell line measured after 8 days; type: functional, cell-based; settings: IGR-37, 192 h
[19] = tested on: SK-MEL-28; test: Cytotoxicity against human SK-MEL-28 cells measured after 8 days; type: functional, cell-based; settings: SK-MEL-28, 192 h
[20] = tested on: UACC-62; test: Cytotoxicity against human UACC-62 cells measured after 8 days; type: functional, cell-based; settings: UACC-62, 192 h
[21] = tested on: HCC827; test: Cytotoxicity against human HCC827 cells measured after 8 days; type: functional, cell-based; settings: HCC827, 192 h
[22] = target: Bromodomain adjacent to zinc finger domain protein 2B (Homo sapiens, UniProt Q9UIF8); test: Binding affinity to human partial length BAZ2B (S2054 to S2168 residues) expressed in bacterial expression system by BROMOscan assay
[23] = target: Chromatin remodeling regulator CECR2 (Homo sapiens, UniProt Q9BXF3); test: Binding affinity to human partial length CECR2 (P423 to D543 residues) expressed in bacterial expression system by BROMOscan assay
[24] = target: T1, Myotonin-protein kinase (Homo sapiens) (UniProt Q09013); test: Inhibition of DMPK (unknown origin) at 1 uM relative to control
T1 sequence (whole entry): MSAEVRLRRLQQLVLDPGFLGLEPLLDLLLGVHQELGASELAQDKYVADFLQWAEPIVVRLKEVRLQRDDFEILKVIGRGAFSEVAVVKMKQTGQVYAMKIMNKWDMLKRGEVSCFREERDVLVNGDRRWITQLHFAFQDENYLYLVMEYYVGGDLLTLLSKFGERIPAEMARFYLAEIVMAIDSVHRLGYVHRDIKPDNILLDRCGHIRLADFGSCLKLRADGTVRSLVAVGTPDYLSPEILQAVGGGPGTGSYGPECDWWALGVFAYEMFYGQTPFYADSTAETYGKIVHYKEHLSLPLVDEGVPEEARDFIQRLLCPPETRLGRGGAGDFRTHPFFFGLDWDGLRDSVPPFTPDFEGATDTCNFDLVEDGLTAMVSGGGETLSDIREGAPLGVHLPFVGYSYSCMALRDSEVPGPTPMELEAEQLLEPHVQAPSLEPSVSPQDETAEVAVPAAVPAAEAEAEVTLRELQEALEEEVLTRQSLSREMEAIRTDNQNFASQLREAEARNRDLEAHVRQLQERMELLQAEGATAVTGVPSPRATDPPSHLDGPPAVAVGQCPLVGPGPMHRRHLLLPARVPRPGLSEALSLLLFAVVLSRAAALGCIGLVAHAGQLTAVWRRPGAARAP

[25] = target: Tyrosine-protein kinase Lck (Homo sapiens) (UniProt P06239); test: Inhibition of LCK (unknown origin) at 1 uM relative to control
[26] = target: Serine/threonine-protein kinase pim-1 (Homo sapiens) (UniProt P11309); test: Inhibition of PIM1 (unknown origin) at 1 uM relative to control
[27] = target: Adenosine receptor A2a (Homo sapiens) (UniProt P29274); test: Displacement of [3H]-CGS 21680 from human recombinant adenosine A2A receptor at 10 uM after 120 mins by scintillation counting analysis relative to control
[28] = organism: Rattus norvegicus; test: Displacement of [3H]flunitrazepam from rat brain central BZD at 10 uM after 60 mins by radioligand binding assay relative to control
[29] = target: T2, Peroxisome proliferator-activated receptor gamma (Homo sapiens) (UniProt P37231); test: Inhibition of human PPARgamma at 10 uM relative to control
T2 sequence (whole entry): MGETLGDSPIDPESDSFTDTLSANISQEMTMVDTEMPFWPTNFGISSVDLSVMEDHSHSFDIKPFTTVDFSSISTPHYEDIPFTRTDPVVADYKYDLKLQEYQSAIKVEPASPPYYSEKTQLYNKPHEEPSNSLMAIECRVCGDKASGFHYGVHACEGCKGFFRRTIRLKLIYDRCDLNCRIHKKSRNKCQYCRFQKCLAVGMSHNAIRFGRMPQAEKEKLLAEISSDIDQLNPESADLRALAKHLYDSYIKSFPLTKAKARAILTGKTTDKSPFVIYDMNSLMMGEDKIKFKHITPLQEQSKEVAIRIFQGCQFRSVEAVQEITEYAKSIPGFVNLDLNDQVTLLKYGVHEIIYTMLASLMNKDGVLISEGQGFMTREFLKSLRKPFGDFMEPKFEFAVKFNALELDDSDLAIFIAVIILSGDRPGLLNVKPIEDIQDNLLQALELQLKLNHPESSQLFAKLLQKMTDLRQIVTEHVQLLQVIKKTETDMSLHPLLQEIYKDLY

[30] = target: Sodium-dependent noradrenaline transporter (Homo sapiens) (UniProt P23975); test: Displacement of [3H]nisoxetine from recombinant human norepinephrine transporter at 10 uM after 120 mins by scintillation counting analysis relative to control
Chain of Sodium-dependent noradrenaline transporter (Homo sapiens) (P23975 whole entry): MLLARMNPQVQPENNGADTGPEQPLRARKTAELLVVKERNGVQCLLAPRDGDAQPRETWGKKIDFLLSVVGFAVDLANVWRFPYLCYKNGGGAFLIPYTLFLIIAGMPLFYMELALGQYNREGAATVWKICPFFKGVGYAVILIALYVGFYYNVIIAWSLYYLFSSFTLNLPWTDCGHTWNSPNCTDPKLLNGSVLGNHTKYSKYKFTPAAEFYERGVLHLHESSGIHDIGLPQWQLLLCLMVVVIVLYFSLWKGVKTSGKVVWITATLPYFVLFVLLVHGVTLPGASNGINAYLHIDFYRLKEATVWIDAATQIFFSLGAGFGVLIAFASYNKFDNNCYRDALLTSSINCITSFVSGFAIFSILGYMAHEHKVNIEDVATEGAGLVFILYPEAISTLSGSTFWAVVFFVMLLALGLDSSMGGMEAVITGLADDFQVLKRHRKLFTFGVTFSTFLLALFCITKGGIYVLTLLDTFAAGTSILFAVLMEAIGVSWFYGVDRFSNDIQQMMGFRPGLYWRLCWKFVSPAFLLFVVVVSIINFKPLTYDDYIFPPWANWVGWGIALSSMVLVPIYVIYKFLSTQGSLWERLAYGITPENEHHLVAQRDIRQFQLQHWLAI

Chain of Chromatin remodeling regulator CECR2 (Q9BXF3 whole entry, the tested form may be a part): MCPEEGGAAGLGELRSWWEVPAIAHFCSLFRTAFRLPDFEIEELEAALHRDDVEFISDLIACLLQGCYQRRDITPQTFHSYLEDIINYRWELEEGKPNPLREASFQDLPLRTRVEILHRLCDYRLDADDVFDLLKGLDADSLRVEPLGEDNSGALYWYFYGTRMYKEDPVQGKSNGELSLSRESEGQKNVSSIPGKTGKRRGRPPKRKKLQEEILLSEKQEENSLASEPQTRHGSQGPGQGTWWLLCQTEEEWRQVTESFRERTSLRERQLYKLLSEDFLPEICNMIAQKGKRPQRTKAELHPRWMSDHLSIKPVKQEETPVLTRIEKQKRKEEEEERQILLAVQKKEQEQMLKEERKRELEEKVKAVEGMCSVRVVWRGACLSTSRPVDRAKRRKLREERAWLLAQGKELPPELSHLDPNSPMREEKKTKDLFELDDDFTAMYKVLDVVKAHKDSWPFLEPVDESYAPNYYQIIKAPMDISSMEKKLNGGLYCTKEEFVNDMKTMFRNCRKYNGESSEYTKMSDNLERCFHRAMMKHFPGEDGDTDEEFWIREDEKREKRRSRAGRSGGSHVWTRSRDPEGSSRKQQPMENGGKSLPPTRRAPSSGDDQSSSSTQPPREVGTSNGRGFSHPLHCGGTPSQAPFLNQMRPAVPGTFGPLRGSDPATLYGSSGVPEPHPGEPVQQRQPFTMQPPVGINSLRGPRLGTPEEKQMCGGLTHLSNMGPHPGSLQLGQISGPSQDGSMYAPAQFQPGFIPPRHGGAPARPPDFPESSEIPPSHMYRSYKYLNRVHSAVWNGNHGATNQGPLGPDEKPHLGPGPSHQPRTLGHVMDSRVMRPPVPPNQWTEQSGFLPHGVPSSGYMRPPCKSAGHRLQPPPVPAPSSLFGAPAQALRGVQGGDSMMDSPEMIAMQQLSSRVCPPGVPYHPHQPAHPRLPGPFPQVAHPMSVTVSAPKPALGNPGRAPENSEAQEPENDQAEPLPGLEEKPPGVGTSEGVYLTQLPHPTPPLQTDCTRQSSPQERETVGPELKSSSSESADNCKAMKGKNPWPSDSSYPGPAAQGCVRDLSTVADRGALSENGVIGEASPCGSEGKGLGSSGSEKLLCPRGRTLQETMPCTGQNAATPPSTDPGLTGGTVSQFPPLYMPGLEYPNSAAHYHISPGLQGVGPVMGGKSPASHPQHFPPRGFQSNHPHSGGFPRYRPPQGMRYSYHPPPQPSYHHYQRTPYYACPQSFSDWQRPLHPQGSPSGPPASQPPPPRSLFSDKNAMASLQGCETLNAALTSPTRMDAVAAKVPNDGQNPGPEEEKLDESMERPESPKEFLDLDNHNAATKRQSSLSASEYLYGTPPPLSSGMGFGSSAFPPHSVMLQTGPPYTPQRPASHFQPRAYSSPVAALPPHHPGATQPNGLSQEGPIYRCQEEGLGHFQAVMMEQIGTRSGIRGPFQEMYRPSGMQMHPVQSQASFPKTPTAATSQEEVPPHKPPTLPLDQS
Chain of Adenosine receptor A2a (Homo sapiens) (P29274 whole entry): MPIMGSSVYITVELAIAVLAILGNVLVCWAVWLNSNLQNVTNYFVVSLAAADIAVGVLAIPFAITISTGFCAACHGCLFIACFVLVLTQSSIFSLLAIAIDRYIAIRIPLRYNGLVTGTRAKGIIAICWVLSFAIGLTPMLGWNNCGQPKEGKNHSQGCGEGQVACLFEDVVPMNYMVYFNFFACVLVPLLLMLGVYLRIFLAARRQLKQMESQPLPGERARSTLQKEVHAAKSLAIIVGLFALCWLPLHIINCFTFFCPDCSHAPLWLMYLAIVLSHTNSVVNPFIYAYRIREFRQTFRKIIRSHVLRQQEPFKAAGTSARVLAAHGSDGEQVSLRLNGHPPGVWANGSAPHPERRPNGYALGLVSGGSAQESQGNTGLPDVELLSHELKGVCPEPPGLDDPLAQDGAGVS
Chain of Serine/threonine-protein kinase pim-1 (Homo sapiens) (P11309 whole entry, looked up): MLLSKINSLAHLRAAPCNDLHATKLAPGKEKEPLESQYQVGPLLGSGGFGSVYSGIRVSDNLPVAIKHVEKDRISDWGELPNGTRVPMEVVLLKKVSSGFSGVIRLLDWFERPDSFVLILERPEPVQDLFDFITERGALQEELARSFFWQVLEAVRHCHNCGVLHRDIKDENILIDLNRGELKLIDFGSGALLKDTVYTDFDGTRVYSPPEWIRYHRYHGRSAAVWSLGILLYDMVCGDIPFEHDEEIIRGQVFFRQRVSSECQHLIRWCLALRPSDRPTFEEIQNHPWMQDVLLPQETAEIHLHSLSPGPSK
Chain of Bromodomain adjacent to zinc finger domain protein 2B (Q9UIF8 whole entry, the tested form may be a part): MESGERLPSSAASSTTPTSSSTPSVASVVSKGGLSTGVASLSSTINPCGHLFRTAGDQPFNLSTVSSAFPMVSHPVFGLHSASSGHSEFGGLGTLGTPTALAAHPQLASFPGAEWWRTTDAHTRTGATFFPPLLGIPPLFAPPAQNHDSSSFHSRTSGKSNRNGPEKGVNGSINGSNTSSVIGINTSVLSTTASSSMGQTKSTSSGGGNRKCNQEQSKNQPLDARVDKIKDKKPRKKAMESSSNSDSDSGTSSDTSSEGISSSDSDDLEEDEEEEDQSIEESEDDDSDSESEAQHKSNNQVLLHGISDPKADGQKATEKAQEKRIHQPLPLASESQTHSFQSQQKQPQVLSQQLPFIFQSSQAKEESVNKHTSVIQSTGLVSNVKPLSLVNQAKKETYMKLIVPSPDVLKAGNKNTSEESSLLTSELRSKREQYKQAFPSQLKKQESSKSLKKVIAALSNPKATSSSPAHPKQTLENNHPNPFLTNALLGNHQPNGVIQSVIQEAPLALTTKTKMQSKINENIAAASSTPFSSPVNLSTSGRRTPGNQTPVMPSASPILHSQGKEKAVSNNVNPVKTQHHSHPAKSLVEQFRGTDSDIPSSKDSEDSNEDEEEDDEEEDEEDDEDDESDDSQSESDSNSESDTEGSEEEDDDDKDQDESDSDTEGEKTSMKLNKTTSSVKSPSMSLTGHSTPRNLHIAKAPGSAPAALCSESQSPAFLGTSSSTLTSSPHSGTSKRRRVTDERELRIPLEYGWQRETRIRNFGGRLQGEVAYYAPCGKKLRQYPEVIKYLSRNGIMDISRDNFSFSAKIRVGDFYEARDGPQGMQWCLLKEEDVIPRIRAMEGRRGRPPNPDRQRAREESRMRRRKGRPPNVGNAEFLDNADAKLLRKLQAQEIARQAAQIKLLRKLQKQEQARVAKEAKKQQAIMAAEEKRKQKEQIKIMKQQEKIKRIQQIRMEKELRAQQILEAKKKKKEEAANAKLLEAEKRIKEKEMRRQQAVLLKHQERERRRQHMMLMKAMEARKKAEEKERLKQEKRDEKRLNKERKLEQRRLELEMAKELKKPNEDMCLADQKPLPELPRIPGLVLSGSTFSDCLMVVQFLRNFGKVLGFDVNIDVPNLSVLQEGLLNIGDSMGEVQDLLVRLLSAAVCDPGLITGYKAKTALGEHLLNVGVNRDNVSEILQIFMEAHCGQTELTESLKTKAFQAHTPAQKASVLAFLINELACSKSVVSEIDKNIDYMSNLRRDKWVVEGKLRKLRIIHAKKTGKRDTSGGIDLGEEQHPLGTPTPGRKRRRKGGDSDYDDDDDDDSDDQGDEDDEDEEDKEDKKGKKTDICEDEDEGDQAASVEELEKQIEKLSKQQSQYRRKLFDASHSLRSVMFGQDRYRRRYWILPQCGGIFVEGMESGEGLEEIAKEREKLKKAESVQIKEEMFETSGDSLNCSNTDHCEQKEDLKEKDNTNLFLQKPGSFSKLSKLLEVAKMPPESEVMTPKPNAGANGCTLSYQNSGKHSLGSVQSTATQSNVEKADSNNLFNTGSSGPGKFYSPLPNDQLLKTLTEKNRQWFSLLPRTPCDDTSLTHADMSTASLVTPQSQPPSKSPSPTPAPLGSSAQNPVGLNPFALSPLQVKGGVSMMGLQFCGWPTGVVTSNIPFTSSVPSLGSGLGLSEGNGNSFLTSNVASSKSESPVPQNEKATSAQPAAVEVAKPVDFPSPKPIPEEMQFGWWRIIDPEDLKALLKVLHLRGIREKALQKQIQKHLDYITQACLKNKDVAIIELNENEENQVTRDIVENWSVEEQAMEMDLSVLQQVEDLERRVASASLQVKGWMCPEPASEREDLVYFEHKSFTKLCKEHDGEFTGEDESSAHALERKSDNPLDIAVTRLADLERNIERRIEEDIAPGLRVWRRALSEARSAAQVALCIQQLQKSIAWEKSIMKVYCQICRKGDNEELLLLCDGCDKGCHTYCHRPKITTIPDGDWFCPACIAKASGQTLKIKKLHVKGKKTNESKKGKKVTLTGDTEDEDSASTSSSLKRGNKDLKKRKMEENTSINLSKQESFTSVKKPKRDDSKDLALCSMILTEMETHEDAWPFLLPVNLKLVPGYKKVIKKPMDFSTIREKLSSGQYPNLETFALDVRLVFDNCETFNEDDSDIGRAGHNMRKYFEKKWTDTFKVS

Structure (SMILES)	pIC50 [1]	pIC50 [2]	pIC50 [3]	pIC50 [4]	pIC50 [5]	pIC50 [6]	pIC50 [7]	pIC50 [8]	pIC50 [9]	pIC50 [10]	pIC50 [11]	pIC50 [12]	pIC50 [13]	pIC50 [14]	pIC50 [15]	pIC50 [16]	pIC50 [17]	pIC50 [18]	pKd [22]	pKd [23]	also measured
C/C=C/Cn1cc(-c2ccc(C(C)(C)O)cc2OC)c2cc[nH]c2c1=O	4.70	4.70	4.70	4.70	4.70	4.70	4.70	4.83	4.97	5.30	4.70	5.07	4.70	4.70	4.70	4.70	4.70	4.70	< 5.00	< 5.00	pIC50 [19]: 4.70; pIC50 [20]: 4.70; pIC50 [21]: 4.70; inhibition [24]: 2.5%; inhibition [25]: 19.5%; inhibition [26]: 0.5%; Activity [27]: 8%; Activity [28]: -21%; inhibition [29]: 18%; Activity [30]: -6%
C/C=C/Cn1cc(-c2cc(OC)c(C(C)(C)O)cc2OC)c2cc(C)[nH]c2c1=O																			< 5.00	< 5.00	
C/C=C/Cn1cc(-c2ccc(C(=O)N3CCOCC3)cc2)c2cc[nH]c2c1=O	4.70	4.70	4.96	4.70	4.70	4.70	4.70	4.70	5.00	4.99	4.70	4.70	4.70	4.70	4.70	4.70	4.70	4.70	< 5.00	5.42	pIC50 [19]: 4.70; pIC50 [20]: 4.70; pIC50 [21]: 4.70; inhibition [24]: -2%; inhibition [25]: 6.5%; inhibition [26]: -3.4%; Activity [27]: 8%; Activity [28]: 13%; inhibition [29]: 49%; Activity [30]: -3%
C/C=C/Cn1cc(-c2cc(OC)c(C(=O)N3CCOCC3)cc2OC)c2cc(C)[nH]c2c1=O	5.70	5.70	5.70	5.70	5.70	5.70	5.70	5.70	5.70	5.70	5.70	5.70	5.70	5.70	5.70	5.70	5.70	5.70	< 5.00	5.44	pIC50 [19]: 5.70; pIC50 [20]: 5.70; pIC50 [21]: 5.70; inhibition [24]: -4%; inhibition [25]: 18.5%; inhibition [26]: 2%; Activity [27]: 12%; Activity [28]: 86%; inhibition [29]: 9%; Activity [30]: 0%
